Data from patent US20240018161A1, “MODULATORS OF CYSTIC FIBROSIS TRANSMEMBRANE CONDUCTANCE REGULATOR” (VERTEX PHARMACEUTICALS INCORPORATED, priority 2020, published 2024).
Like-named read-outs stand apart in the source and are kept apart here.

Target: CFTR-mediated chloride transport in human intestinal epithelial enteroid cells (Homo sapiens, UniProt P13569)
Test: Membrane potential dye, Enteroid Assay A
Type: cell-based
Settings: for EC50: read-out: Ent. A EC50
Method in brief: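 Membrane potential dye (20 μM methyl oxonol, with 30 μM CaCCinh-A01 and 30 μM Chicago Sky Blue) loaded 25 min at room temperature into ROCK-inhibitor-seeded human enteroid cells. Chloride-free stimulation buffer triggered transport, followed by 15 min fluorescence. % Activity relative to 3 μM/3 μM/300 nM triple-combination control.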

[1] = enteroid cells incubated with test compound 18-24 hours, acute 10 μM forskolin and 300 nM N-[2,4-bis(1,1-dimethylethyl)-5-hydroxyphenyl]-1,4-dihydro-4-oxoquinoline-3-carboxamide
[2] = percentage of chloride transport of triple combination control (3 μM N-[(6-amino-2-pyridyl)sulfonyl]-6-(3-fluoro-5-isobutoxy-phenyl)-2-[(4S)-2,2,4-trimethylpyrrolidin-1-yl]pyridine-3-carboxamide based)

Chain of CFTR-mediated chloride transport in human intestinal epithelial enteroid cells (P13569 with tags, fused parts or gaps DEL508-508): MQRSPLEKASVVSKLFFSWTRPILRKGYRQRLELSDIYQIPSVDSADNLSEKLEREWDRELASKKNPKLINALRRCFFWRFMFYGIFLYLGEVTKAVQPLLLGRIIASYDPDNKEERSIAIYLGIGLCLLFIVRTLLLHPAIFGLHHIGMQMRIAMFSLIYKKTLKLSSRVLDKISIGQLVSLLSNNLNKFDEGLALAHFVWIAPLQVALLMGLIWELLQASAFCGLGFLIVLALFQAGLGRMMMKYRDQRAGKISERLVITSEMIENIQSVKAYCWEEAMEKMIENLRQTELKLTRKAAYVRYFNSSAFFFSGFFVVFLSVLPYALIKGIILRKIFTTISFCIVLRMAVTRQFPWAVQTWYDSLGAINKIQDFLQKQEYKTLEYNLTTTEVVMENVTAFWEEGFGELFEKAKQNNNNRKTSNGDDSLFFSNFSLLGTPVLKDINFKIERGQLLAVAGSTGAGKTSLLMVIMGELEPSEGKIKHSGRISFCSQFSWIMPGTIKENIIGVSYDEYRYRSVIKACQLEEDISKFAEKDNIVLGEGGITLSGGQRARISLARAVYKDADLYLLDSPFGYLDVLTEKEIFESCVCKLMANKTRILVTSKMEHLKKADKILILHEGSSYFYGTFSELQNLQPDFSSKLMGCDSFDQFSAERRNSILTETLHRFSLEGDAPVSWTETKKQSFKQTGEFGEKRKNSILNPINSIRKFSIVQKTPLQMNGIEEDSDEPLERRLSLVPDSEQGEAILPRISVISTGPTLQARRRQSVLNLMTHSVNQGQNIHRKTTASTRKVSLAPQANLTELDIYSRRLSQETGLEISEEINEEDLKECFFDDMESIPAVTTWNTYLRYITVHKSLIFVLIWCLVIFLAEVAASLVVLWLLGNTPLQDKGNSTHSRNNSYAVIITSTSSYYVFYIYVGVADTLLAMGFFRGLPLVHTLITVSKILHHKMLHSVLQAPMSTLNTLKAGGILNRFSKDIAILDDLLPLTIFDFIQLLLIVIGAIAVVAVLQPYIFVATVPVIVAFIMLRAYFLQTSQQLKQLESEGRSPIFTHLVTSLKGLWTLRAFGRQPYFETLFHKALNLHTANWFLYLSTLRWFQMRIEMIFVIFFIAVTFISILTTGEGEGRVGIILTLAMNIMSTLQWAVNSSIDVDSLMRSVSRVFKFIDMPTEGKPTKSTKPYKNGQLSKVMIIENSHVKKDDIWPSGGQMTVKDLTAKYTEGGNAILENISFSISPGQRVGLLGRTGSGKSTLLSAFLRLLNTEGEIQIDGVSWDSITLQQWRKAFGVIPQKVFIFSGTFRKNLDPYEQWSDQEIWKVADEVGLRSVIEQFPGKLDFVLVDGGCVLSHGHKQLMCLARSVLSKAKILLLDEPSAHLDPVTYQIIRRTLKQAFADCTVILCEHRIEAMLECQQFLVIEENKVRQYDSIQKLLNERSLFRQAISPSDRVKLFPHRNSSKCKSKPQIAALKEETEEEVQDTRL

| SMILES | Ent. A Max Activity (%) (Enteroid Assay A) | EC50 (Enteroid Assay A) | EC50 [1] | Ent. A Max Activity (%) [2] |
| --- | --- | --- | --- | --- |
| Cc1cccc(C)c1-c1cc2nc(n1)NS(=O)(=O)c1cccc(c1)C(=O)N1CCN(C(C)C)CC1C(Cc1ccccc1)O2 (stereo not drawn) [Compound 174, 9-benzyl-13-(2,6-dimethylphenyl)-6-(propan-2-yl)-10-oxa-17λ^6-thia-3,6,14,16,23-pentaazatetracyclo[16.3.1.111,15.03,8]tricosa-1(22),11,13,15(23),18,20-hexaene-2,17,17-trione] | +++ (+++ is >600%) | < 1 µM | – | – |
| Cc1cccc(C)c1-c1cc2nc(n1)NS(=O)(=O)c1cccc(c1)C(=O)N1CCNCC1C(Cc1ccccc1)O2 (stereo not drawn) [Compound 176, 9-benzyl-13-(2,6-dimethylphenyl)-10-oxa-17λ^6-thia-3,6,14,16,23-pentaazatetracyclo[16.3.1.111,15.03,8]tricosa-1(22),11,13,15(23),18,20-hexaene-2,17,17-trione] | + (+ is <30%) | 3 to 30 µM | – | – |
| Cc1cccc(C)c1-c1cc2nc(n1)NS(=O)(=O)c1cccc(c1)C(=O)N1CCN(CCC(C)(C)C)C(CO2)C1 (stereo not drawn) [Compound 177, 18-(3,3-Dimethylbutyl)-12-(2,6-dimethylphenyl)-15-oxa-8λ^6-thia-1,9,11,18,22-pentaazatetracyclo[15.3.1.13,7.110,14]tricosa-3(23),4,6,10(22),11,13-hexaene-2,8,8-trione] | – | – | < 1 µM | ++ (++ is 30-60%) |
| Cc1cccc(C)c1-c1cc2nc(n1)NS(=O)(=O)c1cccc(c1)C(=O)N1CCN(Cc3ccccc3)C(CO2)C1 (stereo not drawn) [Compound 178, 18-Benzyl-12-(2,6-dimethylphenyl)-15-oxa-8λ^6-thia-1,9,11,18,22-pentaazatetracyclo[15.3.1.13,7.110,14]tricosa-3,5,7(23),10(22),11,13-hexaene-2,8,8-trione] | – | – | < 1 µM | ++ (++ is 30-60%) |
| Cc1cccc(C)c1-c1cc2nc(n1)NS(=O)(=O)c1cccc(c1)C(=O)N1Cc3cc(C(C)(C)C)ccc3C(C1)O2 (stereo not drawn) [Compound 182, 20-tert-Butyl-12-(2,6-dimethylphenyl)-15-oxa-8λ^6-thia-1,9,11,25-tetraazapentacyclo[14.7.1.13,7.110,14.017,22]hexacosa-3,5,7(26),10,12,14(25),17,19,21-nonaene-2,8,8-trione] | + (+ is <30%) | – | – | – |
| Cc1cccc(C)c1-c1cc2nc(n1)NS(=O)(=O)c1cccc(c1)C(=O)N1Cc3cc(C(C)(C)C)ccc3[C@H](O2)[C@H]1CC(C)C [Compound 184, (16S,24R)-20-tert-Butyl-12-(2,6-dimethylphenyl)-24-(2-methylpropyl)-15-oxa-8λ^6-thia-1,9,11,25-tetraazapentacyclo[14.7.1.13,7.110,14.017,22]hexacosa-3,5,7(26),10,12,14(25),17,19,21-nonaene-2,8,8-trione] | +++ (+++ is >600%) | < 1 µM | – | – |
| Cc1cccc(C)c1-c1cc2nc(n1)NS(=O)(=O)c1cccc(c1)C(=O)N1Cc3cc(C(C)(C)C)ccc3[C@@H](O2)[C@H]1CC(C)C [Compound 185, (16R,24R)-20-tert-butyl-12-(2,6-dimethylphenyl)-24-(2-methylpropyl)-15-oxa-8λ^6-thia-1,9,11,25-tetraazapentacyclo[14.7.1.13,7.110,14.017,22]hexacosa-3,5,7(26),10,12,14(25),17,19,21-nonaene-2,8,8-trione] | +++ (+++ is >600%) | < 1 µM | – | – |
| Cc1cccc(C)c1-c1cc2nc(n1)NS(=O)(=O)c1cccc(c1)C(=O)N1CCCN(Cc3ccccc3)CC(C1)O2 (stereo not drawn) [Compound 205, 18-Benzyl-12-(2,6-dimethylphenyl)-15-oxa-8λ^6-thia-1,9,11,18,23-pentaazatetracyclo[14.5.1.13,7.110,14]tetracosa-3,5,7(24),10,12,14(23)-hexaene-2,8,8-trione] | ++ (++ is 30-60%) | < 1 µM | – | – |
| Cc1cccc(C)c1-c1cc2nc(n1)NS(=O)(=O)c1cccc(c1)C(=O)N1CCCN(CCC(C)(C)C)CC(C1)O2 (stereo not drawn) [Compound 206, 18-(3,3-Dimethylbutyl)-12-(2,6-dimethylphenyl)-15-oxa-8λ^6-thia-1,9,11,18,23-pentaazatetracyclo[14.5.1.13,7.110,14]tetracosa-3,5,7(24),10,12,14(23)-hexaene-2,8,8-trione] | ++ (++ is 30-60%) | < 1 µM | – | – |
| Cc1cccc(C)c1-c1cc2nc(n1)NS(=O)(=O)c1cc(n(C)c1)C(=O)N1Cc3ccccc3C(C1)O2 (stereo not drawn) [Compound 207, 11-(2,6-Dimethylphenyl)-4-methyl-14-oxa-7λ^6-thia-1,4,8,10,24-pentaazapentacyclo[13.7.1.13,6.19,13.016,21]pentacosa-3(25),5,9(24),10,12,16(21),17,19-octaene-2,7,7-trione] | – | – | < 1 µM | ++ (++ is 30-60%) |
| Cc1cccc(C)c1-c1cc2nc(n1)NS(=O)(=O)c1cccc(c1)CN1Cc3ccccc3C(C1)O2 (stereo not drawn) [Compound 208, 12-(2,6-Dimethylphenyl)-15-oxa-8λ^6-thia-1,9,11,25-tetraazapentacyclo[14.7.1.13,7.110,14.017,22]hexacosa-3(26),4,6,10,12,14(25),17(22),18,20-nonaene-8,8-dione] | – | – | < 1 µM | ++ (++ is 30-60%) |
| Cc1cccc(C)c1-c1cc2nc(n1)NS(=O)(=O)c1cccc(c1)C(=O)N1CCOC[C@@H]1[C@@H](Cc1ccccc1)O2 [Compound 209, (8R)-9-Benzyl-13-(2,6-dimethylphenyl)-6,10-dioxa-17λ^6-thia-3,14,16,23-tetraazatetracyclo[16.3.1.111,15.03,8]tricosa-1(22),11,13,15(23),18,20-hexaene-2,17,17-trione] | – | – | < 1 µM | +++ (+++ is >60%) |
| Cc1cccc(C)c1-c1cc2nc(n1)NS(=O)(=O)c1cccc(c1)C(=O)N1Cc3ccccc3C[C@@H]1CO2 [Compound 211, (12R)-17-(2,6-Dimethylphenyl)-14-oxa-21λ^6-thia-3,18,20,27-tetraazapentacyclo[20.3.1.115,19.03,12.05,10]heptacosa-1(26),5(10),6,8,15(27),16,18,22,24-nonaene-2,21,21-trione] | – | – | < 1 µM | +++ (+++ is >60%) |
| Cc1cccc(C)c1-c1cc2nc(n1)NS(=O)(=O)c1cccc(c1)C(=O)N1Cc3ccccc3C[C@H]1CO2 [Compound 212, (12S)-17-(2,6-Dimethylphenyl)-14-oxa-21λ^6-thia-3,18,20,27-tetraazapentacyclo[20.3.1.115,19.03,12.05,10]heptacosa-1(26),5(10),6,8,15(27),16,18,22,24-nonaene-2,21,21-trione] | – | – | < 1 µM | ++ (++ is 30-60%) |
| Cc1cccc(C)c1-c1cc2nc(n1)NS(=O)(=O)c1cccc(c1)C(=O)N1CCc3ccccc3C(C1)O2 (stereo not drawn) [Compound 220, 12-(2,6-Dimethylphenyl)-15-oxa-8λ^6-thia-1,9,11,26-tetraazapentacyclo[14.8.1.13,7.110,14.017,22]heptacosa-3(27),4,6,10(26),11,13,17,19,21-nonaene-2,8,8-trione] | – | – | < 1 µM | +++ (+++ is >60%) |
| Cc1cccc(C)c1-c1cc2nc(n1)NS(=O)(=O)c1cccc(c1)C(=O)N1CC(CC3(CCCC3)C1)O2 (stereo not drawn) [Compound 229, 18′-(2,6-Dimethylphenyl)-2′-oxa-14′λ^6-thia-7′,15′,17′,20′-tetraazaspiro[cyclopentane-1,5′-tetracyclo[14.3.1.13,7.19,13]docosane]-1′(20′),9′,11′,13′(21′),16′,18′-hexaene-8′,14′,14′-trione] | – | – | < 1 µM | ++ (++ is 30-60%) |
| Cc1cccc(C)c1-c1cc2nc(n1)NS(=N)(=O)c1cccc(c1)C(=O)N1CCN(C(=O)OC(C)(C)C)CC(C1)O2 (stereo not drawn) [Compound 240, tert-butyl 12-(2,6-dimethylphenyl)-8-imino-2,8-dioxo-15-oxa-8λ^6-thia-1,9,11,18,22-pentaazatetracyclo[14.4.1.13,7.110,14]tricosa-3,5,7(23),10,12,14(22)-hexaene-18-carboxylate] | ++ (++ is 30-60%) | 3 to 30 µM | – | – |
| Cc1cccc(C)c1-c1cc2nc(n1)NS(=N)(=O)c1cccc(c1)C(=O)N1CCNCC(C1)O2 (stereo not drawn) [Compound 241, 12-(2,6-Dimethylphenyl)-8-imino-15-oxa-8λ^6-thia-1,9,11,18,22-pentaazatetracyclo[14.4.1.13,7.110,14]tricosa-3,5,7(23),10,12,14(22)-hexaene-2,8-dione] | + (+ is <30%) | – | – | – |
| Cc1cccc(C)c1-c1cc2nc(n1)NS(=N)(=O)c1cccc(c1)C(=O)N1CCNCC(C1)O2 (stereo not drawn) [Compound 242, 12-(2,6-Dimethylphenyl)-8-imino-15-oxa-8λ^6-thia-1,9,11,18,22-pentaazatetracyclo[14.4.1.13,7.110,14]tricosa-3,5,7(23),10,12,14(22)-hexaene-2,8-dione] | + (+ is <30%) | – | – | – |
| Cc1cccc(C)c1-c1cc2nc(n1)NS(=N)(=O)c1cccc(c1)C(=O)N1CCN(Cc3ccccc3)CC(C1)O2 (stereo not drawn) [Compound 246] | ++ (++ is 30-60%) | 1 to 3 µM | – | – |
| Cc1cccc(C)c1-c1cc2nc(n1)NS(=N)(=O)c1cccc(c1)C(=O)N1CCN(CCC(C)(C)C)CC(C1)O2 (stereo not drawn) [Compound 247] | + (+ is <30%) | 1 to 3 µM | – | – |
